# Tested on: Daudi Cell Culture
# Test: Compound primary screening in Daudi cell culture
# Type: cell-based
# Conditions: Homo sapiens, 168 h; Daudi cells, 1250 cells per well, reads on Day 7
# Experimental: Compound Primary Screening
# 1. Materials and Supplies
# Plastic ware and consumables needed for this experiment include: Cell Culture media; Evaporation Buffer media; 100% DMSO; 96 well U-bottom sterile culture plates; 250 mL bottle; 1.5 mL Opaque amber epi tubes; Epi Tube rack; 300 mL reservoirs; 25 mL reservoir; 25 mL serological pipette tips; 5 mL serological pipette tips P1000 Pipette Tips; and P200 Pipette Tips.
# Equipment needed for this experiment include: Viaflo 384 liquid handler; Eppendorf serological pipette; Eppendorf P1000 Pipette; and Eppendorf P200 Pipette
# Daudi Cell Culture is also needed for this experiment.
# Lastly, compounds (e.g., the compounds of this invention) to be tested are needed.
# All steps were performed in a sterile environment inside the Biosafety cabinet.
# A 96 well u-bottom plate was prepared by writing the experiment number, plate number, date and initials in the top right corner of the plate lid. With a sterile 300 ml reservoir, and 25 ml serological pipette, evaporation buffer media was pipetted into reservoir in 25 ml increments. Using the liquid handler, 150 ul of evaporation buffer media was pipetted from reservoir into rows A and H, and Columns 1 and 12 of the 96 well u-bottom plate. Cell cultures were counted to obtain the density of cells per ml, and the culture viability. The cell density information was used to obtain 1,000,000 cells from culture using a 5 mL serological pipette into an epi tube. The cell density information from the culture was used to calculate the number of cells and volume of media needed for the assay to seed 1250 cells in 130 ul of media per available culture well in the 96 well u-bottom plate. Rows B through F were used for cells (50 wells in total), with row G left for an empty media control. The calculation was overestimated by 10 mL to account for the dead volume in the 300 ml reservoir. Once the media volume was calculated, the appropriate volume of media was pipetted in 25 mL increments into the 250 mL bottle using a 25 mL serological pipette. The 250 ml bottle was capped tightly, and placed into a 37° C. water bath for 2 minutes. While the culture media was warming, 10 mL of fresh media was pipetted from the 500 mL culture media bottle into a sterile 25 mL reservoir. Using the Eppendorf multichannel pipette, 130 ul of media was pipetted from the 25 mL reservoir into row G of the 96 well u-bottom plate. Once the 250 mL bottle of media was warmed, the volume of culture needed was pipetted into the bottle, and mixed gently with a 25 mL serological pipette as to not create bubbles, and then the contents of the bottle were pipetted into a new 300 mL reservoir. Using the liquid handler, 130 ul of culture was pipetted from the 300 mL reservoir into rows B through F of the 96 well u-bottom plate. Once the culture was added, the plate was placed into a 37° C. incubator until the compound master plate was prepared for use.
# Two 96 well u-bottom plates were prepared by writing the master plate name in the upper right corner of the plate lid. Labeling one DMSO master and the other Media Master. The compounds of interest were obtained from the laboratory freezer, and placed into a 25 well storage box with a lid, and set the box aside. The compounds were vortexed after thawing but before use. Using an automatic multichannel pipette, 20 ul of 100% DMSO was pipetted into wells B3-B11 through G3-G11 of the DMSO master plate. For each compound on the master plate, 50 ul of the compound were pipetted in the appropriate well of row 2 (reference plate map to determine appropriate well). A serial dilution was prepared beginning by aspirating 20 ul from row 2 and mixing with row 3, repeating until row 11 was reached. Using the liquid handler, 194 ul of Daudi media was dispensed into wells B2-B11 through G2-G11 of the Media master plate. Using the liquid handler, 6 ul from the DMSO master plate was aspirated and dispensed into the media master plate, mixing 100 ul twice. […]
row,Compound,EC50 [µM]
1,CC(C)OC(=O)Nc1ccc(-c2ncc(-c3ccc(NC(=O)NCc4ccccc4)cc3S(=O)(=O)NC(C)(C)C)s2)cc1 [Compound A2],< 1
2,CC(=O)Nc1ccc(-c2cnc(-c3ccc(NC(=S)NC(C)C)cc3)s2)c(S(=O)(=O)N2CCNCC2)c1 [Compound A3],< 5
3,CC(=O)Nc1ccc(-c2cnc(-c3ccc(N)cc3)s2)c(S(=O)(=O)NC(C)(C)C)c1 [Compound A4],< 10
4,CC(=O)Nc1ccc(-c2cnc(-c3ccc(OC(=O)NC(C)C)cc3)s2)c(S(=O)(=O)NC(C)(C)C)c1 [Compound A5],< 5
5,CC(C)OC(=O)Nc1ccc(-c2ncc(-c3ccc(-c4cnc[nH]4)cc3S(=O)(=O)NC(C)(C)C)s2)cc1 [Compound A6],< 5
6,CC(C)N(C)C(=O)Nc1ccc(-c2ncc(-c3ccc(N4CCCC4=O)cc3S(=O)(=O)NC(C)(C)C)s2)cc1 [Compound A7],< 10
7,CC(C)OC(=O)Nc1ccc(-c2ncc(-c3ccc(NC(=O)OCCO)cc3S(=O)(=O)NC(C)(C)C)s2)cc1 [Compound B1],< 5
8,COCCOC(=O)Nc1ccc(-c2cnc(-c3ccc(NC(=O)OC(C)C)cc3)s2)c(S(=O)(=O)NC(C)(C)C)c1 [Compound B2],< 1
9,CC(C)OC(=O)Nc1ccc(-c2ncc(-c3ccc(NC(=O)OCc4ccccn4)cc3S(=O)(=O)NC(C)(C)C)s2)cc1 [Compound B3],< 1
10,CC(C)OC(=O)Nc1ccc(-c2ncc(-c3ccc(NC(=O)OCc4ccncc4)cc3S(=O)(=O)NC(C)(C)C)s2)cc1 [Compound B4],< 1
11,C=C(C)COC(=O)Nc1ccc(-c2cnc(-c3ccc(NC(=O)OC(C)C)cc3)s2)c(S(=O)(=O)NC(C)(C)C)c1 [Compound B5],< 1
12,CC(C)OC(=O)Nc1ccc(-c2ncc(-c3ccc(NC(=O)CCc4ccccc4)cc3S(=O)(=O)NC(C)(C)C)s2)cc1 [Compound B6],< 1
13,CC(C)OC(=O)Nc1ccc(-c2ncc(-c3ccc(NC(=O)OCC4CCCN4)cc3S(=O)(=O)NC(C)(C)C)s2)cc1 (centres unmarked) [Compound B7],< 5
14,CC(C)OC(=O)Nc1ccc(-c2ncc(-c3ccc(NC(=O)OCCc4ccccc4)cc3S(=O)(=O)NC(C)(C)C)s2)cc1 [Compound B8],< 1
15,CC(C)OC(=O)Nc1ccc(-c2ncc(-c3ccc(NC(=O)OCc4cccnc4)cc3S(=O)(=O)NC(C)(C)C)s2)cc1 [Compound B9],< 1
16,CC(C)OC(=O)Nc1ccc(-c2ncc(-c3ccc(NC(=O)OCC4CCCCC4)cc3S(=O)(=O)NC(C)(C)C)s2)cc1 [Compound B10],< 1
17,CC(C)OC(=O)Nc1ccc(-c2ncc(-c3ccc(NC(=O)OCc4nccs4)cc3S(=O)(=O)NC(C)(C)C)s2)cc1 [Compound B11],< 1
18,C/C=C/COC(=O)Nc1ccc(-c2cnc(-c3ccc(NC(=O)OC(C)C)cc3)s2)c(S(=O)(=O)NC(C)(C)C)c1 [Compound B12],< 1
19,CC(C)OC(=O)Nc1ccc(-c2ncc(-c3ccc(NC(=O)OCCN)cc3S(=O)(=O)NC(C)(C)C)s2)cc1 [Compound B13],< 5
20,CC(C)OC(=O)Nc1ccc(-c2ncc(-c3ccc(NC(=O)OCc4ncc[nH]4)cc3S(=O)(=O)NC(C)(C)C)s2)cc1 [Compound B14],< 10
21,CC(C)OC(=O)Nc1ccc(-c2ncc(-c3ccc(NC(=O)OC(C)c4ccccc4)cc3S(=O)(=O)NC(C)(C)C)s2)cc1 (centres unmarked) [Compound B15],< 1
22,CC(C)OC(=O)Nc1ccc(-c2ncc(-c3ccc(NC(=O)NC(C)c4ccccc4)cc3S(=O)(=O)NC(C)(C)C)s2)cc1 (centres unmarked) [Compound C1],< 1
23,CC(=O)Nc1ccc(-c2cnc(-c3ccc(NC(=S)NC(C)C)cc3)s2)c(S(=O)(=O)N2C3CCC2CC3)c1 [Compound D22],< 1

# More lines, now with the values ahead:
row,EC50 [µM],Compound
1,> 10,COC(=O)[C@H](Cc1ccccc1)NS(=O)(=O)c1cc(NC(C)=O)ccc1-c1cnc(-c2ccc(NC(=S)NC(C)C)cc2)s1 [Compound D1]
2,> 10,COC(=O)[C@@H](NS(=O)(=O)c1cc(NC(C)=O)ccc1-c1cnc(-c2ccc(NC(=S)NC(C)C)cc2)s1)C(C)C [Compound D2]
3,> 10,CC(=O)Nc1ccc(-c2cnc(-c3ccc(NC(=S)NC(C)C)cc3)s2)c(S(=O)(=O)NCc2ccccn2)c1 [Compound D3]
4,> 10,CC(=O)Nc1ccc(-c2cnc(-c3ccc(NC(=S)NC(C)C)cc3)s2)c(S(=O)(=O)NCC(C)(C)CO)c1 [Compound D4]
5,> 10,CC(=O)Nc1ccc(-c2cnc(-c3ccc(NC(=S)NC(C)C)cc3)s2)c(S(=O)(=O)N[C@@H](C)CO)c1 [Compound D5]
6,> 10,CNS(=O)(=O)c1cc(NC(C)=O)ccc1-c1cnc(-c2ccc(NC(=S)NC(C)C)cc2)s1 [Compound D6]
7,> 10,CC(=O)Nc1ccc(-c2cnc(-c3ccc(NC(=S)NC(C)C)cc3)s2)c(S(=O)(=O)N[C@H]2CC[C@H](O)CC2)c1 [Compound D7]
8,> 10,CC(=O)Nc1ccc(-c2cnc(-c3ccc(NC(=S)NC(C)C)cc3)s2)c(S(=O)(=O)N2CCOCC2)c1 [Compound D8]
9,> 10,CCNS(=O)(=O)c1cc(NC(C)=O)ccc1-c1cnc(-c2ccc(NC(=S)NC(C)C)cc2)s1 [Compound D9]
10,< 1,CC(=O)Nc1ccc(-c2cnc(-c3ccc(NC(=S)NC(C)C)cc3)s2)c(S(=O)(=O)N(C)C)c1 [Compound D10]
11,> 10,CC(=O)Nc1ccc(-c2cnc(-c3ccc(NC(=S)NC(C)C)cc3)s2)c(S(=O)(=O)NC(CO)CO)c1 [Compound D11]
12,> 10,CC(=O)Nc1ccc(-c2cnc(-c3ccc(NC(=S)NC(C)C)cc3)s2)c(S(=O)(=O)NCc2ccncc2)c1 [Compound D12]
13,> 10,CC(=O)Nc1ccc(-c2cnc(-c3ccc(NC(=S)NC(C)C)cc3)s2)c(S(=O)(=O)N2CCCC2)c1 [Compound D13]
14,> 10,CC(=O)Nc1ccc(-c2cnc(-c3ccc(NC(=S)NC(C)C)cc3)s2)c(S(=O)(=O)N2CCCCC2)c1 [Compound D14]
15,> 10,COC(=O)[C@H](CO)NS(=O)(=O)c1cc(NC(C)=O)ccc1-c1cnc(-c2ccc(NC(=S)NC(C)C)cc2)s1 [Compound D15]
16,> 10,CC(=O)Nc1ccc(-c2cnc(-c3ccc(NC(=S)NC(C)C)cc3)s2)c(S(=O)(=O)NCCN(C)C)c1 [Compound D16]
17,> 10,CC(=O)Nc1ccc(-c2cnc(-c3ccc(NC(=S)NC(C)C)cc3)s2)c(S(=O)(=O)NCCN)c1 [Compound D17]
18,> 10,CC(=O)Nc1ccc(-c2cnc(-c3ccc(NC(=S)NC(C)C)cc3)s2)c(S(=O)(=O)N[C@H](CO)C(C)C)c1 [Compound D18]
19,> 10,CC(=O)Nc1ccc(-c2cnc(-c3ccc(NC(=S)NC(C)C)cc3)s2)c(S(=O)(=O)NCc2ccccc2)c1 [Compound D19]
20,> 10,COC(=O)CNS(=O)(=O)c1cc(NC(C)=O)ccc1-c1cnc(-c2ccc(NC(=S)NC(C)C)cc2)s1 [Compound D20]
21,> 10,COC(=O)[C@H](C)NS(=O)(=O)c1cc(NC(C)=O)ccc1-c1cnc(-c2ccc(NC(=S)NC(C)C)cc2)s1 [Compound D21]
22,> 10,CNCCCNS(=O)(=O)c1cc(NC(C)=O)ccc1-c1cnc(-c2ccc(NC(=S)NC(C)C)cc2)s1 [Compound D23]
23,> 10,CC(=O)Nc1ccc(-c2cnc(-c3ccc(NC(=S)NC(C)C)cc3)s2)c(S(=O)(=O)NCCCN)c1 [Compound D24]
24,< 1,CC(=O)Nc1ccc(-c2cnc(-c3ccc(NC(=S)NC(C)C)cc3)s2)c(S(=O)(=O)NCCCN(C)C)c1 [Compound D25]

# Source: patent US11291655B2, “RAD51 inhibitors” (Cyteir Therapeutics, Inc., priority 2017, dated 2022)
